Data on 20 compounds can be found in patent publication US8569292B2, “Cyclic inhibitors of 11β-hydroxysteroid dehydrogenase 1” (Vitae Pharmaceuticals, Inc., priority 2008, dated 2013).

Bounds are passed on as bounds.

What is called IC50 is the concentration needed to halve the response being measured. As usually defined, the inhibition is the drop in the measured response relative to a control, in per cent.

For one test, the target named is CYP3A4 (Homo sapiens, UniProt P08684). Put plainly: Biological Test Example 6: CYP3A4 inhibition (erythromycin N-demethylation). The test is classed as in vitro ADME.
Sequence of CYP3A4 (P08684 whole entry): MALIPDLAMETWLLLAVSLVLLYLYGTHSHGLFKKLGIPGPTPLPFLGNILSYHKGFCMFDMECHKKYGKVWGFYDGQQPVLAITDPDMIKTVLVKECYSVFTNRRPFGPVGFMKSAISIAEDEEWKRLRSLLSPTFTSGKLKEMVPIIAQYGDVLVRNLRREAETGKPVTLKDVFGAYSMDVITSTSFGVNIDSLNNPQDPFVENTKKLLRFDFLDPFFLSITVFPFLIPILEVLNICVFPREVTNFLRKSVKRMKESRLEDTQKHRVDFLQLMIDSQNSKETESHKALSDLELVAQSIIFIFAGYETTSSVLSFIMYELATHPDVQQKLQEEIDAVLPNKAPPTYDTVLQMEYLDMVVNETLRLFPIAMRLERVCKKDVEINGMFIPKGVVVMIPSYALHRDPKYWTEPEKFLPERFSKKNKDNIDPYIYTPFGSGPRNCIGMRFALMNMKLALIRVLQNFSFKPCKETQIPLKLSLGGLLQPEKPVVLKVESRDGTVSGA
Test [1] addresses T1, CYP2C9 (Homo sapiens, UniProt P11712).
T1 construct: purchased Invitrogen 2859; host or cells: insect cells infected with baculovirus (microsomes)
Put plainly: Biological Test Example 7: CYP2C9 inhibition (naproxen O-demethylation). The test is classed as in vitro ADME.

In the next test the target is CYP2C19 (Homo sapiens, UniProt P33261). Nature of the test: Biological Test Example 8: CYP2C19 inhibition (diazepam N-demethylation). The test is classed as in vitro ADME.
Sequence of CYP2C19 (P33261 whole entry): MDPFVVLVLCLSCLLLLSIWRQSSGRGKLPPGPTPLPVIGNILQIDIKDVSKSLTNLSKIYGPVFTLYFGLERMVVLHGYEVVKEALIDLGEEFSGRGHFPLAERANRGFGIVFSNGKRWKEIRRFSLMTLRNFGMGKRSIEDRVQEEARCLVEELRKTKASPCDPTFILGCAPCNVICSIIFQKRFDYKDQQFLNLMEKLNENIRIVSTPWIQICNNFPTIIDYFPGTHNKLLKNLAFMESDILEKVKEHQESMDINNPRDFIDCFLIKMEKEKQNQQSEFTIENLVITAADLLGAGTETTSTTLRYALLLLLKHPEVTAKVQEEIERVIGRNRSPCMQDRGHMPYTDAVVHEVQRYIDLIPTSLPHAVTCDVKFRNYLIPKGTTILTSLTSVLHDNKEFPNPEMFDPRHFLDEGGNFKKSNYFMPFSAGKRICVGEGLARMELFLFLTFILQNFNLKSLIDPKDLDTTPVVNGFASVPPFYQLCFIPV
The target in test [2] is T1, CYP2C9. Put plainly: Biological Test Example 9: CYP2C9 inhibition (Invitrogen kit, fluorogenic OOMR). The test is classed as in vitro ADME.
Test [3] deals with T2, 11β-HSD1 (Homo sapiens, UniProt P28845). Put plainly: biochemical. Conditions: for inhibition at 0.1 µM: read-out: Average % inhibition at 100 nM.
T2 sequence (P28845 whole entry): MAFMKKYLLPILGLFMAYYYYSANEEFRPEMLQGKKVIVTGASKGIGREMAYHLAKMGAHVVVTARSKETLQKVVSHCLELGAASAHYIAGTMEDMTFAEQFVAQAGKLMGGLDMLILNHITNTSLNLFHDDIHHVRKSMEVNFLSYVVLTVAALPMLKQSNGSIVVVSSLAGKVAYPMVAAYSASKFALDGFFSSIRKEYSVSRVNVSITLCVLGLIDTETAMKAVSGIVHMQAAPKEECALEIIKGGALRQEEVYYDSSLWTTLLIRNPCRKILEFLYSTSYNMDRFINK
In test [4] the target is T2, 11β-HSD1. Put plainly: Biological Test Example 4: microsomal 11β-HSD1 in the presence of 50% human plasma. Conditions: for Shift: IC50 in Test Example 4 divided by IC50 in Test Example 1.
Setting [5] is: Biological Test Example 1 IC50 (nM).
[6] abbreviates: IC50 Range, Biological Test Example 1.

T1 sequence (P11712 whole entry): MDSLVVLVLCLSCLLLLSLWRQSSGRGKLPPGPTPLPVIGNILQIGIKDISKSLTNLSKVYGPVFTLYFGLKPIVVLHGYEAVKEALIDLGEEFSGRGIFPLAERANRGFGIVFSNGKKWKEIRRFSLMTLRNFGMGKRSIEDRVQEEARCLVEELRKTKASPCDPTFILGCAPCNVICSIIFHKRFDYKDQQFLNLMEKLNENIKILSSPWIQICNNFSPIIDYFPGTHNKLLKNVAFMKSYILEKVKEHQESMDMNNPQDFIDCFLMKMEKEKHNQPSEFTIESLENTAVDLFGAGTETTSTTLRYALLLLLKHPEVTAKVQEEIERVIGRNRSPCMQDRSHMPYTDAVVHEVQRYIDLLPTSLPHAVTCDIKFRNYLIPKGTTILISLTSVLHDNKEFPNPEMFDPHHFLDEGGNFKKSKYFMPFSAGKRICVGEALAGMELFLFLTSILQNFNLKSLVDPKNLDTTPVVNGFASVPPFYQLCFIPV

Consider `C[C@@H](c1ccc(-c2ncc(C(=O)NC3CC3)s2)cc1)N1CC[C@](CC(C)(C)O)(c2ccccc2)OC1=O` [EXAMPLE 20, N-cyclopropyl-2-(4-((S)-1-((S)-6-(2-hydroxy-2-methylpropyl)-2-oxo-6-phenyl-1,3-oxazinan-3-yl)ethyl)phenyl)thiazole-5-carboxamide], for which the IC50 against CYP3A4 was 49800 nM; at CYP2C9 [1] it was 15400 nM; at CYP2C19 it was 47700 nM.

For the compound `Cc1cc(-c2ccc([C@H](C)N3CC[C@](CCO)(c4ccc(F)cc4)OC3=O)cc2)ccn1` [EXAMPLE 75, (S)-6-(4-fluorophenyl)-6-(2-hydroxyethyl)-3-((S)-1-(4-(2-methylpyridin-4-yl)phenyl)ethyl)-1,3-oxazinan-2-one], the IC50 against CYP3A4 is 14900 nM; against CYP2C9 [1], 12200 nM; against CYP2C9 [2] it was 9100 nM; on 11β-HSD1 [3] (setting [5]), 1.1 nM; on 11β-HSD1 [3] (setting [6]) it was < 100 nM; on 11β-HSD1 [4] it was 9.8 nM. The inhibition at 0.1 µM on 11β-HSD1 [3] was determined as 97.7%.

Turning to `Cc1cc(-c2ccc([C@H](C)N3CC[C@](CCCO)(c4ccccc4)OC3=O)cc2)cc(C)[n+]1[O-]` [EXAMPLE 120, 4-(4-((S)-1-((R)-6-(3-hydroxypropyl)-2-oxo-6-phenyl-1,3-oxazinan-3-yl)ethyl)phenyl)-2,6-dimethylpyridine 1-oxide], the IC50 at CYP2C9 [2] was 4700 nM; on 11β-HSD1 [3] (setting [5]), 6.7 nM; against 11β-HSD1 [3] (setting [6]), < 100 nM; on 11β-HSD1 [4], 24.2 nM. In addition, the inhibition at 0.1 µM on 11β-HSD1 [3] was found to be 93.1%. The Shift at 11β-HSD1 [4] amounted to 3.6.

As for `Cc1cc(-c2ccc([C@H](C)N3CC[C@](CC(C)(C)O)(c4ccccc4)OC3=O)cc2)cc(C)[n+]1[O-]` [EXAMPLE 121, 4-(4-((S)-1-((S)-6-(2-hydroxy-2-methylpropyl)-2-oxo-6-phenyl-1,3-oxazinan-3-yl)ethyl)phenyl)-2,6-dimethylpyridine 1-oxide], the IC50 against CYP2C9 [2] is 4800 nM; at 11β-HSD1 [3] (setting [5]), 2.3 nM; on 11β-HSD1 [3] (setting [6]), < 100 nM; on 11β-HSD1 [4] it was 7.5 nM. Also, at 11β-HSD1 [3], the inhibition at 0.1 µM is 97.3%.

Take `Cc1cc(-c2ccc([C@H](C)N3CC[C@](CC(C)(C)O)(c4ccc(F)cc4)OC3=O)cc2)cc(C)[n+]1[O-]` [EXAMPLE 123, 4-(4-((S)-1-((S)-6-(4-fluorophenyl)-6-(2-hydroxy-2-methylpropyl)-2-oxo-1,3-oxazinan-3-yl)ethyl)phenyl)-2,6-dimethylpyridine 1-oxide]: the IC50 against CYP2C9 [2] was 9100 nM; on 11β-HSD1 [3] (setting [5]), 6.6 nM; against 11β-HSD1 [3] (setting [6]), < 100 nM; on 11β-HSD1 [4], 11.1 nM. On 11β-HSD1 [3], the inhibition at 0.1 µM is 93.6%. Besides, the Shift at 11β-HSD1 [4] is 1.7.

Consider `C[C@@H](c1ccc(-c2ccnc(N)c2)cc1)N1CC[C@](CCCO)(c2ccccc2)OC1=O` [EXAMPLE 125, (R)-3-((S)-1-(4-(2-aminopyridin-4-yl)phenyl)ethyl)-6-(3-hydroxypropyl)-6-phenyl-1,3-oxazinan-2-one], for which the half-inhibitory concentration (IC50) is 4300 nM at CYP2C9 [2], 0.6 nM against 11β-HSD1 [3] (setting [5]), < 100 nM against 11β-HSD1 [3] (setting [6]) and 6.8 nM on 11β-HSD1 [4]. Also, the inhibition at 0.1 µM on 11β-HSD1 [3] worked out at 98.6%. For the same compound, the Shift at 11β-HSD1 [4] was 12.3.

On to `Cc1cc(-c2ccc([C@H](C)N3CC[C@](CCCO)(c4ccc(F)cc4)OC3=O)cc2)nc(C)n1` [EXAMPLE 127, (R)-3-((S)-1-(4-(2,6-dimethylpyrimidin-4-yl)phenyl)ethyl)-6-(4-fluorophenyl)-6-(3-hydroxypropyl)-1,3-oxazinan-2-one], for which the concentration for half-maximal inhibition (IC50) was > 30000 nM against CYP2C9 [2], 6.1 nM at 11β-HSD1 [3] (setting [5]), < 100 nM at 11β-HSD1 [3] (setting [6]) and 69.8 nM at 11β-HSD1 [4]. For the same compound, the inhibition at 0.1 µM on 11β-HSD1 [3] was determined as 93.7%. For the same compound, on 11β-HSD1 [4], the Shift is 11.5.

For the compound `C[C@@H](c1ccc(-c2ccncn2)cc1)N1CC[C@](CCCO)(c2ccc(F)cc2)OC1=O` [EXAMPLE 128, (R)-6-(4-fluorophenyl)-6-(3-hydroxypropyl)-3-((S)-1-(4-(pyrimidin-4-yl)phenyl)ethyl)-1,3-oxazinan-2-one], the IC50 is 3300 nM against CYP2C9 [2], 1.1 nM against 11β-HSD1 [3] (setting [5]), < 100 nM against 11β-HSD1 [3] (setting [6]) and 8.5 nM on 11β-HSD1 [4]. Besides, the inhibition at 0.1 µM on 11β-HSD1 [3] came out at 96.5%.

Regarding `C[C@@H](c1ccc(-c2cncnc2)cc1)N1CC[C@](CCCO)(c2ccc(F)cc2)OC1=O` [EXAMPLE 129, (R)-6-(4-fluorophenyl)-6-(3-hydroxypropyl)-3-((S)-1-(4-(pyrimidin-5-yl)phenyl)ethyl)-1,3-oxazinan-2-one], the concentration for half-maximal inhibition (IC50) on CYP2C9 [2] is 28300 nM; against 11β-HSD1 [3] (setting [5]) it was 4.3 nM; against 11β-HSD1 [3] (setting [6]), < 100 nM; at 11β-HSD1 [4] it was 17.3 nM. Also, at 11β-HSD1 [3], the inhibition at 0.1 µM amounted to 93.9%. Moreover, at 11β-HSD1 [4], the Shift is 4.1.

Regarding `C[C@@H](c1ccc(-c2cccnn2)cc1)N1CC[C@](CCCO)(c2ccc(F)cc2)OC1=O` [EXAMPLE 132, (R)-6-(4-fluorophenyl)-6-(3-hydroxypropyl)-3-((S)-1-(4-(pyridazin-3-yl)phenyl)ethyl)-1,3-oxazinan-2-one], the IC50 at CYP2C9 [2] was 18300 nM; against 11β-HSD1 [3] (setting [5]), 6.1 nM; against 11β-HSD1 [3] (setting [6]), < 100 nM; on 11β-HSD1 [4] it was 18.9 nM. Moreover, on 11β-HSD1 [3], the inhibition at 0.1 µM is 95.2%. The Shift on 11β-HSD1 [4] is on record as 3.1.

Regarding `C[C@@H](c1ccc(-c2ccc(C(N)=O)cn2)cc1)N1CC[C@](CCCO)(c2ccccc2)OC1=O` [EXAMPLE 140, 6-(4-((S)-1-((R)-6-(3-hydroxypropyl)-2-oxo-6-phenyl-1,3-oxazinan-3-yl)ethyl)phenyl)nicotinamide], the IC50 at CYP2C9 [2] was 20600 nM; at 11β-HSD1 [3] (setting [5]) it was 1.1 nM; against 11β-HSD1 [3] (setting [6]) it was < 100 nM; on 11β-HSD1 [4], 6.8 nM. For the same compound, on 11β-HSD1 [3], the inhibition at 0.1 µM came to 98.7%. The Shift on 11β-HSD1 [4] is on record as 6.4.

Regarding `Cc1ccc(-c2ccc([C@H](C)N3CC[C@](CCCO)(c4ccc(F)cc4)OC3=O)cc2)c(C)n1` [EXAMPLE 141, (R)-3-((S)-1-(4-(2,6-dimethylpyridin-3-yl)phenyl)ethyl)-6-(4-fluorophenyl)-6-(3-hydroxypropyl)-1,3-oxazinan-2-one], the IC50 was > 30000 nM on CYP2C9 [2], 1 nM against 11β-HSD1 [3] (setting [5]), < 100 nM on 11β-HSD1 [3] (setting [6]) and 6.6 nM on 11β-HSD1 [4]. Also, at 11β-HSD1 [3], the inhibition at 0.1 µM is 102%. Besides, on 11β-HSD1 [4], the Shift was found to be 6.3.

Turning to `C[C@@H](c1ccc(-c2ccc(C(N)=O)cn2)cc1)N1CC[C@](CC(C)(C)O)(c2ccccc2)OC1=O` [EXAMPLE 143, 6-(4-((S)-1-((S)-6-(2-hydroxy-2-methylpropyl)-2-oxo-6-phenyl-1,3-oxazinan-3-yl)ethyl)phenyl)nicotinamide], the IC50 on CYP2C9 [1] and at CYP2C19 was > 50000 nM in each case.

As to `COc1cc(-c2ccc([C@H](C)N3CC[C@](CCCO)(c4ccc(F)cc4)OC3=O)cc2)ccn1` [EXAMPLE 147, (R)-6-(4-fluorophenyl)-6-(3-hydroxypropyl)-3-((S)-1-(4-(2-methoxypyridin-4-yl)phenyl)ethyl)-1,3-oxazinan-2-one], the half-maximal inhibitory concentration (IC50) at CYP2C9 [2] is 4600 nM; against 11β-HSD1 [3] (setting [5]), 0.9 nM; against 11β-HSD1 [3] (setting [6]) it was < 100 nM; at 11β-HSD1 [4] it was 7.9 nM. For the same compound, the inhibition at 0.1 µM on 11β-HSD1 [3] amounted to 98.7%.

On to `C[C@@H](c1ccc(-c2cncc(F)c2)cc1)N1CC[C@](CCCO)(c2ccc(F)cc2)OC1=O` [EXAMPLE 148, (R)-6-(4-fluorophenyl)-3-((S)-1-(4-(5-fluoropyridin-3-yl)phenyl)ethyl)-6-(3-hydroxypropyl)-1,3-oxazinan-2-one], for which the IC50 was 1700 nM against CYP2C9 [2], 0.7 nM at 11β-HSD1 [3] (setting [5]), < 100 nM on 11β-HSD1 [3] (setting [6]) and 4.8 nM on 11β-HSD1 [4]. The inhibition at 0.1 µM at 11β-HSD1 [3] amounted to 97.4%. The Shift on 11β-HSD1 [4] was determined as 7.3.

For `CNC(=O)c1ccc(-c2ccc([C@H](C)N3CC[C@](CC(C)(C)O)(c4ccccc4)OC3=O)cc2)nc1` [EXAMPLE 150, 6-(4-{1-[6-(2-Hydroxy-2-methyl-propyl)-2-oxo-6-phenyl-[1,3]oxazinan-3-yl]-ethyl}-phenyl)-N-methyl-nicotinamide], the half-inhibitory concentration (IC50) against CYP2C9 [1] was 28800 nM; against CYP2C19 it was 33800 nM.

For the compound `Cc1cnc(-c2ccc([C@H](C)N3CC[C@](CC(C)(C)O)(c4ccccc4)OC3=O)cc2)cn1` [EXAMPLE 151, (S)-6-(2-hydroxy-2-methylpropyl)-3-((S)-1-(4-(5-methylpyrazin-2-yl)phenyl)ethyl)-6-phenyl-1,3-oxazinan-2-one], the IC50 against CYP2C9 [1] came to 32600 nM; at CYP2C19, 32300 nM.

As to `COC[C@]1(c2ccccc2)CCN([C@@H](C)c2ccc(-c3ccc(C)nn3)cc2)C(=O)O1` [EXAMPLE 167, (R)-6-(methoxymethyl)-3-((S)-1-(4-(6-methylpyridazin-3-yl)phenyl)ethyl)-6-phenyl-1,3-oxazinan-2-one], the IC50 at CYP3A4 was 46700 nM; against CYP2C9 [1] it was 29500 nM; at CYP2C19, 26100 nM.

As for `CCNC(=O)c1ccc(-c2ccc([C@H](C)N3CC[C@](CC(C)(C)O)(c4ccccc4)OC3=O)cc2)cn1` [EXAMPLE 168, 5-(4-{(S)-1-[(S)-6-(2-Hydroxy-2-methyl-propyl)-2-oxo-6-phenyl-[1,3]oxazinan-3-yl]-ethyl}-phenyl)-pyridine-2-carboxylic acid ethylamide], the IC50 was 16800 nM on CYP3A4, 15100 nM against CYP2C9 [1] and 7900 nM against CYP2C19.

`CNC(=O)c1ccc(-c2ccc([C@H](C)N3CC[C@](CC(C)(C)O)(c4ccccc4)OC3=O)cc2)cn1` [EXAMPLE 169, 5-(4-{(S)-1-[(S)-6-(2-Hydroxy-2-methyl-propyl)-2-oxo-6-phenyl-[1,3]oxazinan-3-yl]-ethyl}-phenyl)-pyridine-2-carboxylic acid methylamide]: the half-inhibitory concentration (IC50) on CYP3A4 stood at 28400 nM; on CYP2C9 [1] it was 45200 nM; on CYP2C19 it was 5900 nM.
